Experiments:
Experiment in all cases: KINOMEscan
Format in all cases: binding
Conditions in all cases: 2000 nM
BUB1 = target: T1, BUB1 (Homo sapiens, UniProt O43683)
T1 construct: DNA label (for qPCR read-out); purchased KINOMEscan scanMAX panel (DiscoveRx)

RET = target: T2, RET (Homo sapiens, UniProt P07949)
T2 construct: purchased DiscoveRx (KINOMEscan scanMAX panel)

DLK = target: T3, DLK (Homo sapiens, UniProt Q12852)
T3 construct: DNA label (qPCR read-out); purchased KINOMEscan (DiscoveRx) panel
T3 sequence (Q12852 whole entry): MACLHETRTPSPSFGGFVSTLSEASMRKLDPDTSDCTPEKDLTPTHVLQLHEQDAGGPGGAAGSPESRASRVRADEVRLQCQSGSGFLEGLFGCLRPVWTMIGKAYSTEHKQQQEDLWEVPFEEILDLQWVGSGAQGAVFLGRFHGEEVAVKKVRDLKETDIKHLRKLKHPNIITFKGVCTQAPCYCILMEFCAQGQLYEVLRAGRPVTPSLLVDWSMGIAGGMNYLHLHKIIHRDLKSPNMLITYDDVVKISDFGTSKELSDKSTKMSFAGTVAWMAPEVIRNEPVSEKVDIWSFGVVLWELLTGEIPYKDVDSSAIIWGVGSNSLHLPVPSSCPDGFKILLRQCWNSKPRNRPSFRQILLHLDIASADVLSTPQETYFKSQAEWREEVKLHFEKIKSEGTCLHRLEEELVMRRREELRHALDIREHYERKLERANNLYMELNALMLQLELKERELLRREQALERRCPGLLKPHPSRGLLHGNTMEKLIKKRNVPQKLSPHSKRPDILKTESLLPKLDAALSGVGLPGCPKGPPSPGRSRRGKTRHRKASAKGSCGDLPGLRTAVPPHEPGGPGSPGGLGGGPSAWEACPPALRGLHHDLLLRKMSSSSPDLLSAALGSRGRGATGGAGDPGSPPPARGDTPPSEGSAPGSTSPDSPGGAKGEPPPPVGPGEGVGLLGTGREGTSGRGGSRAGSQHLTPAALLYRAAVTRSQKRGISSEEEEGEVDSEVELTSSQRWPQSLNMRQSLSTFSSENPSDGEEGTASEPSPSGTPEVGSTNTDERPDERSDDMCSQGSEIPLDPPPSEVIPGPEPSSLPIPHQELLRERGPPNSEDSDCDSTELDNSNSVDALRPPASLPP

EPHA7 = target: T4, EPHA7 (Homo sapiens, UniProt Q15375)
T4 construct: purchased DiscoveRx (KINOMEscan scanMAX panel)

EPHA4 = target: T5, EPHA4 (Homo sapiens, UniProt P54764)
T5 construct: purchased DiscoveRx (KINOMEscan scanMAX panel)

ITK = target: T6, ITK (Homo sapiens, UniProt Q08881)
T6 construct: DNA label (qPCR read-out); purchased KINOMEscan (DiscoveRx) ScanMAX panel

CDKL1 = target: T7, CDKL1 (Homo sapiens, UniProt Q00532)
T7 construct: purchased DiscoverX (KINOMEscan service)

PRKCQ = target: T8, PRKCQ (Homo sapiens, UniProt Q04759)
T8 construct: purchased DiscoveRx (KINOMEscan scanMAX panel)

[1] = target: ABL1(T315I)-phosphorylated (Homo sapiens, UniProt P00519, T315I)
TAK1 = target: T9, TAK1 (Homo sapiens, UniProt O43318)
T9 construct: DNA label (for qPCR read-out); purchased DiscoveRx (KINOMEscan scanMAX panel, contract assay)

TIE1 = target: T10, TIE1 (Homo sapiens, UniProt P35590)
T10 construct: DNA label (qPCR read-out); purchased KINOMEscan (DiscoveRx) ScanMAX panel

GRK1 = target: T11, GRK1 (Homo sapiens, UniProt Q15835)
T11 construct: purchased KINOMEscan (DiscoveRx)

MET = target: T12, MET (Homo sapiens, UniProt P08581)
T12 construct: purchased DiscoveRx (KINOMEscan scanMAX panel, service)
T12 sequence (P08581 25-1390): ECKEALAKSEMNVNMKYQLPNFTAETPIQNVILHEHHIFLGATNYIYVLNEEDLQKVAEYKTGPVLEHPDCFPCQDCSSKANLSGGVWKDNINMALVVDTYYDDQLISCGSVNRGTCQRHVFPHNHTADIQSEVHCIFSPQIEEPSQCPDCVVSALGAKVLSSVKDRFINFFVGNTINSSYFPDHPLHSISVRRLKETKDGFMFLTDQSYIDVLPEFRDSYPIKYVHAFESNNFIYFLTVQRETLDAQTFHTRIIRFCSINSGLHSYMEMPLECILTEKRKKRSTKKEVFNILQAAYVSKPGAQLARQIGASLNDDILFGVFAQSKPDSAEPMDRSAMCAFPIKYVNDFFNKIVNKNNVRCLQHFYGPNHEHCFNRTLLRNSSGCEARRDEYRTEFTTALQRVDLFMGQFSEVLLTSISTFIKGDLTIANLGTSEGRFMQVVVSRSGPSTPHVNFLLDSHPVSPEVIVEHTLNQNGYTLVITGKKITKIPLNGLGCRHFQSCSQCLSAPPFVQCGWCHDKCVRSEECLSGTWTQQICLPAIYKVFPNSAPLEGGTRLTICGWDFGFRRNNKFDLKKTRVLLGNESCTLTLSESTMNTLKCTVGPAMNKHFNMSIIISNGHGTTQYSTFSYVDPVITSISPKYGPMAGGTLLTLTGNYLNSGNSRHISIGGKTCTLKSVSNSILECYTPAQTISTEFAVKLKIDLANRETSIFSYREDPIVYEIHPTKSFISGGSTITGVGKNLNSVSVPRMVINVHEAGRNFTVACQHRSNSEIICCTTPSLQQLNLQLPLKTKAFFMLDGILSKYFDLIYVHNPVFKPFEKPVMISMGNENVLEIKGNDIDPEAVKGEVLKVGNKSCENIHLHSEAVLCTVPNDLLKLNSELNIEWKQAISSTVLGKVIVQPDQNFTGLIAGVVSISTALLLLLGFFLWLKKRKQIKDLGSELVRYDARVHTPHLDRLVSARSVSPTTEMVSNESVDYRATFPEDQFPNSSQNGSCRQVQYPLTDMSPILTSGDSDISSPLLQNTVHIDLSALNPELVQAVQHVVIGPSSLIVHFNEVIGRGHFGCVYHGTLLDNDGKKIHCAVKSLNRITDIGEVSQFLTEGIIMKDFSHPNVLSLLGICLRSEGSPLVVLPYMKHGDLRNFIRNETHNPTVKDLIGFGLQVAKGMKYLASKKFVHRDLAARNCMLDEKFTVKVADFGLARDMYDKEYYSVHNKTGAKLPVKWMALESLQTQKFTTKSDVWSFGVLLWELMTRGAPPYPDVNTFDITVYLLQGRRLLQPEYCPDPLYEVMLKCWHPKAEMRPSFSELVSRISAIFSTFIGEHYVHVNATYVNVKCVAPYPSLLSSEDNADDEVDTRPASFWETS

HIPK1 = target: T13, HIPK1 (Homo sapiens, UniProt Q86Z02)
T13 construct: DNA label (for qPCR read-out); purchased DiscoveRx (KINOMEscan scanMAX panel, contract assay)

PIK3CA(E542K) = target: T14, PIK3CA(E542K) (Homo sapiens, UniProt P42336, E542K)
T14 construct: DNA label; purchased DiscoveRx (KINOMEscan scanMAX panel)
T14 sequence (P42336 whole entry E542K): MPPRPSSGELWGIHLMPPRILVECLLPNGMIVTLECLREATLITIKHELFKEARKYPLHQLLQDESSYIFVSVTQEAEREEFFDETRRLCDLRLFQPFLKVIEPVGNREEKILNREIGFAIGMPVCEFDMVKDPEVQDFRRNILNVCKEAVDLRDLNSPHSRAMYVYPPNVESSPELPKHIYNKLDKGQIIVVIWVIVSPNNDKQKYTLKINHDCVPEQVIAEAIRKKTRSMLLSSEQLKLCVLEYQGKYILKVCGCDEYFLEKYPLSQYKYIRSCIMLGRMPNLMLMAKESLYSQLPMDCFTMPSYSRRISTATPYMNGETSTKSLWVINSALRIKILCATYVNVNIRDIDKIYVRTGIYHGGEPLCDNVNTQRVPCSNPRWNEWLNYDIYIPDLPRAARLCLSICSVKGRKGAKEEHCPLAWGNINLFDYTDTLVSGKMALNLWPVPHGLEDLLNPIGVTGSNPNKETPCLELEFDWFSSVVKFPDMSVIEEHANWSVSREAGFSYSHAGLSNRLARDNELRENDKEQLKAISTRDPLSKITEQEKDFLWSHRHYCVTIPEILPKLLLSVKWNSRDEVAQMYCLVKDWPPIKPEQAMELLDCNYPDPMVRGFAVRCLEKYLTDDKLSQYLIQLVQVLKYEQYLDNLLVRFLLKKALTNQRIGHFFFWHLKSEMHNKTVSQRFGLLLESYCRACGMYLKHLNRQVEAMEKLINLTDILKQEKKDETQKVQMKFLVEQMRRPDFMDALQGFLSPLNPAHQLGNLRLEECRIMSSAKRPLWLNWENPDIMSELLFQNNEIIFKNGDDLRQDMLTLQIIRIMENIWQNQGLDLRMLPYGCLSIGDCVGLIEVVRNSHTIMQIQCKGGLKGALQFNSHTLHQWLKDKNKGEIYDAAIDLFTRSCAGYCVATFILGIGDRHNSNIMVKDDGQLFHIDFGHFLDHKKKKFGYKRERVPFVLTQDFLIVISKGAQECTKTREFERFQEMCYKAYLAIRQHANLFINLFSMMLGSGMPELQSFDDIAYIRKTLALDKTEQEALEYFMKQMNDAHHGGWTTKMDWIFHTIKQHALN

STK33 = target: T15, STK33 (Homo sapiens, UniProt Q9BYT3)
T15 construct: DNA label (for qPCR read-out); purchased DiscoveRx (KINOMEscan scanMAX panel, contract assay)
T15 sequence (Q9BYT3 whole entry): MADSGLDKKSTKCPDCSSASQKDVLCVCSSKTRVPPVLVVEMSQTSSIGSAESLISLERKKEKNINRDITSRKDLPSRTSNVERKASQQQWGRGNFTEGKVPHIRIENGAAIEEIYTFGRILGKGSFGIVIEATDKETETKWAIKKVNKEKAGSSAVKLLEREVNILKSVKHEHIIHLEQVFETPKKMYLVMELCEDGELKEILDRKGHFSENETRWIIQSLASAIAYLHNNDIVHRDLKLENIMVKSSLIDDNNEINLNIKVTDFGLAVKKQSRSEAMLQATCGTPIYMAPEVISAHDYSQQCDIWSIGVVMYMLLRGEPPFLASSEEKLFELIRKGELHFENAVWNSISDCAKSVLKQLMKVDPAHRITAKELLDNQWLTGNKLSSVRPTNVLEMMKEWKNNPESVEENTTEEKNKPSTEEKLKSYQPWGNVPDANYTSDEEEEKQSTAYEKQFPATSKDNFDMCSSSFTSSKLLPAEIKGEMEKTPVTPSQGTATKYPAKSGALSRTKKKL

[2] = target: T16, JAK1(JH2domain-pseudokinase) (Homo sapiens, UniProt P23458)
T16 construct: JAK1(JH2domain-pseudokinase); DNA label (for qPCR read-out); purchased DiscoveRx (KINOMEscan scanMAX panel)

ALK = target: T17, ALK (Homo sapiens, UniProt Q9UM73)
T17 construct: purchased DiscoveRx (KINOMEscan scanMAX panel, service)

EGFR(L861Q) = target: T18, EGFR(L861Q) (Homo sapiens, UniProt P00533, L861Q)
T18 construct: purchased DiscoveRx (KINOMEscan scanMAX panel)

DYRK1A = target: T19, DYRK1A (Homo sapiens, UniProt Q13627)
T19 construct: DNA label (qPCR read-out); purchased KINOMEscan (DiscoveRx) panel

JNK3 = target: T20, JNK3 (Homo sapiens, UniProt P53779)
T20 construct: DNA label (for qPCR read-out); purchased DiscoveRx (KINOMEscan scanMAX panel)

PIM1 = target: T21, PIM1 (Homo sapiens, UniProt P11309)
T21 construct: DNA label (qPCR read-out); purchased KINOMEscan (DiscoveRx) panel
T21 sequence (P11309 whole entry): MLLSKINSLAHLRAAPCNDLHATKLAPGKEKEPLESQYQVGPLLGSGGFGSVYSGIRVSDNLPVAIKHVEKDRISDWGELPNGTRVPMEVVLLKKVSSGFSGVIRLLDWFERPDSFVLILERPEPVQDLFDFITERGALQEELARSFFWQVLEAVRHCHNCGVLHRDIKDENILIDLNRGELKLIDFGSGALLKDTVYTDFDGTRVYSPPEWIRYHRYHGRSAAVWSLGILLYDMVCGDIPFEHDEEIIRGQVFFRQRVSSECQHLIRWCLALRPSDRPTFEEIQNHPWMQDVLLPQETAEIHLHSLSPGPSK

LIMK1 = target: T22, LIMK1 (Homo sapiens, UniProt P53667)
T22 construct: purchased KINOMEscan (DiscoveRx) panel service

NEK11 = target: T23, NEK11 (Homo sapiens, UniProt Q8NG66)
T23 construct: DNA label (qPCR read-out); purchased KINOMEscan (ScanMAX panel service)

MST2 = target: T24, MST2 (Homo sapiens, UniProt Q13188)
T24 construct: DNA label (for qPCR read-out); purchased KINOMEscan scanMAX panel (DiscoveRx)

BLK = target: T25, BLK (Homo sapiens, UniProt P51451)
T25 construct: DNA label (for qPCR read-out); purchased KINOMEscan scanMAX panel (DiscoveRx)

[3] = target: T26, RPS6KA5(Kin.Dom.1-N-terminal) (Homo sapiens, UniProt O75582)
T26 construct: Kin.Dom.1; DNA label (qPCR read-out); purchased DiscoveRx (KINOMEscan ScanMAX panel)

PKN1 = target: T27, PKN1 (Homo sapiens, UniProt Q16512)
T27 construct: DNA label (qPCR read-out); purchased KINOMEscan (DiscoveRx) panel

PRKG1 = target: T28, PRKG1 (Homo sapiens, UniProt Q13976)
T28 construct: purchased DiscoveRx (KINOMEscan scanMAX panel)

ALK(L1196M) = target: T29, ALK(L1196M) (Homo sapiens, UniProt Q9UM73, L1196M)
T29 construct: DNA label (qPCR read-out); purchased KINOMEscan scanMAX panel (DiscoveRx)

ADCK3 = target: T30, ADCK3 (Homo sapiens, UniProt Q8NI60)
T30 construct: purchased DiscoveRx (KINOMEscan scanMAX panel, service)
T30 sequence (Q8NI60 163-647): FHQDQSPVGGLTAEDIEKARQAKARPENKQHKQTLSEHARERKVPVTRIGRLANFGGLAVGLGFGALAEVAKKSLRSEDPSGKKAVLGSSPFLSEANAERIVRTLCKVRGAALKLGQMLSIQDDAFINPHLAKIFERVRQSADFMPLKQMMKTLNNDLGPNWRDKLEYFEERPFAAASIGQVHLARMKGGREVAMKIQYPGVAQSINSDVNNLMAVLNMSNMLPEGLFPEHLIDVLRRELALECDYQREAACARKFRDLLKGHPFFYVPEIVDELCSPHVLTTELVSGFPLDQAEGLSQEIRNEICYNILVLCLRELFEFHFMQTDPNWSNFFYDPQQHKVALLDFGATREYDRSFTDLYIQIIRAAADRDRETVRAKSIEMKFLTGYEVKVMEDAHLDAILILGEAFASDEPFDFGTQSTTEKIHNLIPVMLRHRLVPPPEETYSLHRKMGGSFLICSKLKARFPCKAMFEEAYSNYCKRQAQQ

MAP4K4 = MAP4K4 (Homo sapiens, UniProt O95819)
CSNK1D = target: T31, CSNK1D (Homo sapiens, UniProt P48730)
T31 construct: DNA label (qPCR read-out); purchased DiscoverX (assay service)
T31 sequence (P48730 whole entry): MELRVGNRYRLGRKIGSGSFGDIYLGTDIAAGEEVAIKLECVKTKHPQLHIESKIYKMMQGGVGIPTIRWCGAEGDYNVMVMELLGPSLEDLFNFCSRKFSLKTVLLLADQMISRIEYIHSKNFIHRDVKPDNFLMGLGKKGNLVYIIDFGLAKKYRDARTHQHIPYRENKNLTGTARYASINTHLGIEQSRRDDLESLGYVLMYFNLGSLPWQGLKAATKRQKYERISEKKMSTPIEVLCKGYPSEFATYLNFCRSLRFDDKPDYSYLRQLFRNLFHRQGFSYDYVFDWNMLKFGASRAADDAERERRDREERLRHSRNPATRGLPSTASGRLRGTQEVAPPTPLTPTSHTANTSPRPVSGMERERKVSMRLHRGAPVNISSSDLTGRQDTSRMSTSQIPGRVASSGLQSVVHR

ULK2 = target: T32, ULK2 (Homo sapiens, UniProt Q8IYT8)
T32 construct: DNA label (for qPCR read-out); purchased DiscoveRx (KINOMEscan scanMAX panel)

## [2H]C([2H])([2H])N(C(=O)c1ccc(N2CCCN(c3ccnc4sc(C(N)=O)c(N)c34)CC2)cc1)C([2H])([2H])[2H] [15u_D6, 3-amino-4-(4-(4-(bis(methyl-d3)carbamoyl)phenyl)-1,4-diazepan-1-yl)thieno[2,3-b]pyridine-2-carboxamide]
BUB1
  % Ctrl: 80 % Ctrl
RET
  % Ctrl: 86 % Ctrl
DLK
  % Ctrl: 89 % Ctrl
EPHA7
  % Ctrl: 81 % Ctrl
EPHA4
  % Ctrl: 100 % Ctrl
ITK
  % Ctrl: 87 % Ctrl
CDKL1
  % Ctrl: 92 % Ctrl
PRKCQ
  % Ctrl: 87 % Ctrl
[1]
  % Ctrl: 78 % Ctrl
TAK1
  % Ctrl: 62 % Ctrl
TIE1
  % Ctrl: 96 % Ctrl
GRK1
  % Ctrl: 81 % Ctrl
MET
  % Ctrl: 92 % Ctrl
HIPK1
  % Ctrl: 71 % Ctrl
PIK3CA(E542K)
  % Ctrl: 74 % Ctrl
STK33
  % Ctrl: 100 % Ctrl
[2]
  % Ctrl: 89 % Ctrl
ALK
  % Ctrl: 78 % Ctrl
EGFR(L861Q)
  % Ctrl: 100 % Ctrl
DYRK1A
  % Ctrl: 22 % Ctrl
JNK3
  % Ctrl: 44 % Ctrl
PIM1
  % Ctrl: 100 % Ctrl
LIMK1
  % Ctrl: 100 % Ctrl
NEK11
  % Ctrl: 86 % Ctrl
MST2
  % Ctrl: 84 % Ctrl
BLK
  % Ctrl: 92 % Ctrl
[3]
  % Ctrl: 100 % Ctrl
PKN1
  % Ctrl: 100 % Ctrl
PRKG1
  % Ctrl: 100 % Ctrl
ALK(L1196M)
  % Ctrl: 92 % Ctrl
ADCK3
  % Ctrl: 100 % Ctrl
MAP4K4
  % Ctrl: 93 % Ctrl
CSNK1D
  % Ctrl: 22 % Ctrl
ULK2
  % Ctrl: 83 % Ctrl

## CN(C)C(=O)c1ccc(N2CCCN(c3ccnc4sc(C(N)=O)c(N)c34)CC2)cc1 [15u, 3-amino-4-(4-(4-(dimethylcarbamoyl)phenyl)-1,4-diazepan-1-yl)thieno[2,3-b]pyridine-2-carboxamide]
BUB1
  % Ctrl: 88 % Ctrl
RET
  % Ctrl: 93 % Ctrl
DLK
  % Ctrl: 93 % Ctrl
EPHA7
  % Ctrl: 92 % Ctrl
EPHA4
  % Ctrl: 100 % Ctrl
ITK
  % Ctrl: 88 % Ctrl
CDKL1
  % Ctrl: 100 % Ctrl
PRKCQ
  % Ctrl: 90 % Ctrl
[1]
  % Ctrl: 90 % Ctrl
TAK1
  % Ctrl: 93 % Ctrl
TIE1
  % Ctrl: 90 % Ctrl
GRK1
  % Ctrl: 98 % Ctrl
MET
  % Ctrl: 99 % Ctrl
HIPK1
  % Ctrl: 86 % Ctrl
PIK3CA(E542K)
  % Ctrl: 92 % Ctrl
STK33
  % Ctrl: 100 % Ctrl
[2]
  % Ctrl: 89 % Ctrl
ALK
  % Ctrl: 81 % Ctrl
EGFR(L861Q)
  % Ctrl: 78 % Ctrl
DYRK1A
  % Ctrl: 50 % Ctrl
JNK3
  % Ctrl: 91 % Ctrl
PIM1
  % Ctrl: 88 % Ctrl
LIMK1
  % Ctrl: 100 % Ctrl
NEK11
  % Ctrl: 90 % Ctrl
MST2
  % Ctrl: 100 % Ctrl
BLK
  % Ctrl: 100 % Ctrl
[3]
  % Ctrl: 75 % Ctrl
PKN1
  % Ctrl: 96 % Ctrl
PRKG1
  % Ctrl: 88 % Ctrl
ALK(L1196M)
  % Ctrl: 96 % Ctrl
ADCK3
  % Ctrl: 90 % Ctrl
MAP4K4
  % Ctrl: 100 % Ctrl
CSNK1D
  % Ctrl: 20 % Ctrl
ULK2
  % Ctrl: 90 % Ctrl

Reference: patent US11572369B2, “Bicyclic pyridine compositions and methods of using the same for cancer therapy” (UNIVERSITY OF SOUTH CAROLINA, priority 2019, dated 2023)
